# Measurements taken from patent publication US20240139198A1, “METHOD AND COMBINATION FOR TREATING TUMORS” (CURON BIOPHARMACEUTICAL (SHANGHAI) CO., LIMITED, priority 2021, published 2024).
# Experiments:
# A20 cells = assay: A20 mouse B-cell lymphoma animal model, tumor growth in Balb/c mice; format: in vivo
# Procedure: The animal experiment was carried out in accordance with the requirements of AAALAC, and was approved by Bikai Animal Experiment Center IACUC to conduct. 6-8 week-old Balb/c mice (16-20 grams) were purchased from Beijing Weitong Lihua Experimental Animal Technology Co., Ltd. Each mouse was subcutaneously inoculated with 500,000 A20 cells, and inoculated on the right rear side of the back of the mouse. When the volume of the tumor grew to about 60mm^3, the mice were randomly assigned to the control group and the experimental group.
# Mice were euthanized whnmorbidity or weightloss>20% was observed. Tumors were measured with a caliper twice weekly until final sacrifice. When a tumor size reached approximately 2000 mm^3 or there were animal health issues (20% area of a tumor ulcerated), the animals would be euthanized an date of death recorded. Solid tumor volumes were estimated from two dimensional tumor measurements and calculated according to the following equation:
# Tumor volume (mm 3)=[length(mm)×width2 (mm 2)]/2
# The percent median regression for a group at a given day was then obtained by taking the median of the individual percent regression calculated for each animal of the group at this day. The day of calculation was determined on the day when ΔT/ΔC (i.e., the ratio of medians of tumor volume changes from baseline between the treated and control groups)was calculated, except when median percent regression was not representative of the activity of the group. In that case, the day was determined on the first day when the median percent regression was maximal. Regressions were defined as partial (PR) if the tumor volume decreased to 50% of the tumor volume at the start of treatment. Complete regression (CR) was considered to have been achieved when tumor volume was below 14 mm^3 or could not be recorded. • RTV: Relative Tumor Volume. RTV=Vt/V0∘ Vt: Tumor volume at the end of an experimental period (treatment group). V0: tumor volume at the beginning of the experiment • TGI: Tumor Growth Inhibition value. TGI=[1−RTV(experimental group)/RTV(control group)]*100%
# A two-way ANOVA type with factors treatment an day(repeated) was performed on tumor volume changes from baseline. In case of significant treatment day interaction or treatment effects, it was followed by a contrast analysis with Bonferroni-Holm correction for multiplicity to compare all treated groups to the control group at each day from day 8 to 27. Tumor volume changes from baseline were calculated for each animal and each day by subtracting the tumor volume on the day of first treatment from the tumor volume on the specified observation day. As heterogeneity of variances was observed between groups, the compound symmetric(CS) covariance structure with group=option was chosen for the ANOVA type model (SAS Institute Inc. (2008) SAS/STAT 9.2User′s Guide by CaryNC). All statistical analyses were performed using SAS version v9.2 software. A probability less than 5% (p<0.05).
# 6-8 weeks old balb/c mice (18-20 g) were purchased from Beijing Weitong Lihua Experimental Animal Technology Co., Ltd., and each mouse was subcutaneously inoculated with 500,000 A20 cells on the right rear side of the mouse's back. Treatment was initiated when tumors grew to a volume of approximately 62 mm^3. CN401 was orally administered at 150 mg/kg twice a day for 3 weeks.
# CN202 was administered by intraperitoneal injection, 3 times a week at a dose of 5 mg/kg for 3 weeks. The control group was treated with vehicle (0.5% MC and PBS) without active product. Tumor size and body weight were measured three times a week. This animal experiment was carried out in accordance with the requirements of AAALAC, and was approved by Bikai Animal Experiment Center IACUC to conduct this animal experiment.
# Referring to the experimental method of Example 1.1, the difference is that the dosage of CN202 is replaced by 15 mg/kg from 5 mg/kg. […]
# [1] = system: EMT-6 cells (mouse triple-negative breast cancer cells); format: in vivo; conditions: Example 4, CN401 150 mg/kg oral, twice a week × 4 week (Table 12)
# Procedure: Tumors were measured with a caliper twice weekly until final sacrifice. […] Solid tumor volumes were estimated from two dimensional tumor measurements and calculated according to the following equation: […]
molecule,measurement,setting,value
"CC[C@H](Nc1ncnc2nc[nH]c12)c1oc2ccccc2c(=O)c1-c1cccc(F)c1 [CN401, (S)-2-(1-(9H-purin-6-ylamino)propylgroup)-3-(3-fluorophenyl)-4H-chromen-4-one]",CR(Number of mice with tumor regression/total amount of mice in each group),"A20 cells; Example 1.1, CN401 150 mg/kg p.o. bid × 3 weeks, day 22",2/8
same,TGI %,"A20 cells; Example 1.1, CN401 150 mg/kg p.o. bid × 3 weeks, day 22 vs vehicle control, p=0.034",55%
same,CR(Number of mice with tumor regression/total amount of mice in each group),"A20 cells; Example 1.2, CN401 150 mg/kg p.o. bid × 3 weeks, day 22",2/8
same,TGI %,"A20 cells; Example 1.2, CN401 150 mg/kg p.o. bid × 3 weeks, day 22 vs vehicle control, p=0.034",55%
same,CR(Number of mice with tumor regression/total amount of mice in each group),"A20 cells; Example 2.1, CN401 150 mg/kg p.o. bid × 3 weeks, day 22",0/7
same,TGI %,"A20 cells; Example 2.1, CN401 150 mg/kg p.o. bid × 3 weeks, day 22 vs vehicle control, p=0.028",45%
same,CR(Number of mice with tumor regression/total amount of mice in each group),"A20 cells; Example 3, CN401 150 mg/kg p.o. bid × 3 weeks, day 22",2/8
same,TGI %,"A20 cells; Example 3, CN401 150 mg/kg p.o. bid × 3 weeks, day 22 vs vehicle control, p=0.034",55%
same,TGI %,"[1]; 14th day vs vehicle control, p=0.87",3%
same,CR(Number of mice with tumor regression/total amount of mice in each group),[1]; observed up to 80 days,0/8
"Anti-PD-L1 Ab: Anti-PD-L1 antibody (Atezolizumab), CAS Number: 1380723-44-3 [reference compound]",CR(Number of mice with tumor regression/total amount of mice in each group),"A20 cells; Example 3, anti-PD-L1 Ab (atezolizumab) 5 mg/kg i.p. biw × 3 weeks, day 22",0/8
same,TGI %,"A20 cells; Example 3, anti-PD-L1 Ab (atezolizumab) 5 mg/kg i.p. biw × 3 weeks, day 22 vs vehicle control, p=0.57",15%
"Cc1nc(NC(=O)N2CCC[C@H]2C(N)=O)sc1-c1ccnc(C(C)(C)C(F)(F)F)c1 [Alpelisib, (2S)-1-N-[4-methyl-5-[2-(1,1,1-trifluoro-2-methylpropan-2-yl)pyridin-4-yl]-1,3-thiazol-2-yl]pyrrolidine-1,2-dicarboxamide, reference compound]",CR(Number of mice with tumor regression/total amount of mice in each group),"A20 cells; Example 2.2, Alpelisib 50 mg/kg p.o. qd × 3 weeks, day 21",0/7
same,TGI %,"A20 cells; Example 2.2, Alpelisib 50 mg/kg p.o. qd × 3 weeks, day 21 vs vehicle control, p=0.161",37%
